Reference: ChEMBL document CHEMBL5113515, “The Discovery of GSK3640254, a Next-Generation Inhibitor of HIV-1 Maturation” (J Med Chem, 2022)

Legend:
[1] = Drug concentration in overnight fasted Sprague-Dawley rat plasma at 5 mg/kg, po or 1 mg/kg, iv measured after 24 hrs; format: ADME, organism-based
[2] = Binding affinity to HIV1 wild type Gag assessed as dissociation constant; parameters: species or system Human immunodeficiency virus 1
[3] = target: T1, CYP1A2 (Homo sapiens, UniProt P05177); assay: Induction of CYP1A2 in human hepatocyte; format: ADME, cell-based; details: hepatocytes
T1 sequence (P05177 whole entry): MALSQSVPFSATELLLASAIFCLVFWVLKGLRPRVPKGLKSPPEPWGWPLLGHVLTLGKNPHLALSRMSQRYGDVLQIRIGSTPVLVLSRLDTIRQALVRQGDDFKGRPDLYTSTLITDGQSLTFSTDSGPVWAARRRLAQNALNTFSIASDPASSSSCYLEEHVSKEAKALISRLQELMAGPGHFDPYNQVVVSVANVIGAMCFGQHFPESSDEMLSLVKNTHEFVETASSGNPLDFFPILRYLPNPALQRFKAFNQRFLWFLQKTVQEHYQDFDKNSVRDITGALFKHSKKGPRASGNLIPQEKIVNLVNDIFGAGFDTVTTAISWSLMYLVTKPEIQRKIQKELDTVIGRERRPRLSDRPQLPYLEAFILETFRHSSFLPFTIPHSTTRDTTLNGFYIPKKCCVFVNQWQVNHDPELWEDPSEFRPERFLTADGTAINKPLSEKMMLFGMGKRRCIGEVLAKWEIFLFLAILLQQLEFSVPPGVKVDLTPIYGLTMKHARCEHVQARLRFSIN

[4] = Metabolic stability in rat liver microsomes assessed as half life in presence of NADPH at 0.5 uM by LC-MS/MS analysis; format: ADME, Microsome
[5] = AUC(0 to t) in overnight fasted Beagle dog at 2 mg/kg, po or 1 mg/kg, iv; format: ADME, organism-based, Canis lupus familiaris; parameters: dose 2 mg/kg, route po; details: in vivo
[6] = tested on: Human immunodeficiency virus 1; assay: Antiviral activity against HIV1 wild type subtype B NL (4 to 3) transfected in human HEK293T cells by dual-luciferase reporter assay; format: functional, organism-based; details: Human immunodeficiency virus 1, HEK-293T
[7] = Plasma protein binding in human by ultracentrifugation; format: ADME, cell-free; details: read-out: PPB (converted)
[8] = target: Cytochrome P450 2C9 (Homo sapiens, UniProt P11712); assay: Inhibition of CYP2C9 (unknown origin); format: ADME
[9] = Volume of distribution at steady state in overnight fasted Beagle dog at 2 mg/kg, po or 1 mg/kg, iv; format: ADME, organism-based, Canis lupus familiaris; details: in vivo
[10] = Lipophilicity, log D of the compound at pH 6.5; format: physicochemical; details: buffer
[11] = tested on: Human immunodeficiency virus 1; assay: Antiviral activity against HIV1 virus harboring NL (4 to 3) harbouring […]/V370A mutant transfected in human HEK293T cells by luciferase reporter assay; format: functional, organism-based; details: Human immunodeficiency virus 1, HEK-293T
[12] = AUC(0 to t) in overnight fasted mouse at 5 mg/kg, po or 1 mg/kg, iv; format: ADME, organism-based; parameters: dose 5 mg/kg, route po; details: in vivo
[13] = target: T2, UDP-glucuronosyltransferase 1A1 (Homo sapiens, UniProt P22309); assay: Inhibition of UGT1A1(unknown origin)
T2 sequence (P22309 whole entry): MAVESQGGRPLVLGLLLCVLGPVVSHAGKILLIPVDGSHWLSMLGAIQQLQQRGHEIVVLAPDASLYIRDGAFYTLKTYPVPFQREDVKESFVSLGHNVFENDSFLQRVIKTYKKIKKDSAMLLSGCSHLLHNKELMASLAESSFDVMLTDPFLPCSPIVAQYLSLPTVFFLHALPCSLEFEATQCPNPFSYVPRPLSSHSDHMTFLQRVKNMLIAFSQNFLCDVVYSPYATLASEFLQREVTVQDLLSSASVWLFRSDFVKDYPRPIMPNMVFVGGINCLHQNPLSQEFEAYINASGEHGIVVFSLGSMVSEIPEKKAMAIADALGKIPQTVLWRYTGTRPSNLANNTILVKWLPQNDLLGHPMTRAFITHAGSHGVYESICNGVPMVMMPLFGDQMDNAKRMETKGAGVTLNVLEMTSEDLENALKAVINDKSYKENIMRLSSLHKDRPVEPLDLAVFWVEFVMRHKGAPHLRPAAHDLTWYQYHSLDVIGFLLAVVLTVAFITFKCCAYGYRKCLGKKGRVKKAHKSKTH

[14] = Half life in overnight fasted Sprague-Dawley rat at 1 mg/kg, iv; format: ADME, organism-based; details: in vivo
[15] = Volume of distribution at steady state in overnight fasted cynomolgus monkey at 2 mg/kg, po or 1 mg/kg, iv; format: ADME, organism-based, Macaca fascicularis; details: in vivo
[16] = target: T3, CYP2B6 (Homo sapiens, UniProt P20813); assay: Induction of CYP2B6 in human hepatocyte; format: ADME, cell-based; details: hepatocytes
T3 sequence (P20813 whole entry): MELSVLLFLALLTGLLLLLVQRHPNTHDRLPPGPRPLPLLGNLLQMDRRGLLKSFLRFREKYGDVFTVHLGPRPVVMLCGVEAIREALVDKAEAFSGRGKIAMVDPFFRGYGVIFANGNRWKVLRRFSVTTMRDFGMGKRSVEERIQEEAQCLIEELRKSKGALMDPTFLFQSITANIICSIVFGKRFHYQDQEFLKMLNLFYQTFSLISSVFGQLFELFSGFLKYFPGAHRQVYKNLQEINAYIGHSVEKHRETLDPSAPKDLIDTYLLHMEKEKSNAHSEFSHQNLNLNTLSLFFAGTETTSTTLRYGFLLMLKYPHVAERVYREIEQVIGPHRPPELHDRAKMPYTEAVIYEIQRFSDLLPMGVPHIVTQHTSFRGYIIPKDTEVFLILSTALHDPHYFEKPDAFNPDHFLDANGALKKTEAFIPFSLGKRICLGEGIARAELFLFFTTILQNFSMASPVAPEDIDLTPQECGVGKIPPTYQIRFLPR

[17] = Oral bioavailability in overnight fasted mouse using spray-dried dispersion at 5 mg/kg; format: ADME, organism-based; details: in vivo
[18] = tested on: Human immunodeficiency virus 1; assay: Antiviral activity against HIV1 wild type subtype B NL (4 to 3) harbouring V362/Q369/V370/T371 transfected in human HEK293T cells by dual-luciferase reporter assay; format: functional, organism-based; details: Human immunodeficiency virus 1, HEK-293T
[19] = Volume of distribution at steady state in overnight fasted mouse at 5 mg/kg, po or 1 mg/kg, iv; format: ADME, organism-based; details: in vivo
[20] = target: Cytochrome P450 2C19 (Homo sapiens, UniProt P33261); assay: Inhibition of CYP2C19 (unknown origin); format: ADME
[21] = Volume of distribution at steady state in overnight fasted Sprague-Dawley rat at 5 mg/kg, po or 1 mg/kg, iv; format: ADME, organism-based; details: in vivo
[22] = Oral bioavailability in overnight fasted Sprague-Dawley rat using spray-dried dispersion at 5 mg/kg; format: ADME, organism-based; details: in vivo
[23] = Metabolic stability in human liver microsomes assessed as half life in presence of NADPH at 0.5 uM by LC-MS/MS analysis; format: ADME, Microsome
[24] = Drug concentration in overnight fasted Beagle dog plasma at 2 mg/kg, po or 1 mg/kg, iv measured after 24 hrs; format: ADME, organism-based, Canis lupus familiaris
[25] = tested on: Human immunodeficiency virus 1; assay: Antiviral activity against HIV1 harbouring V362I/V370A mutant infected in human MT2 cells measured after 4 to 5 days by dual-luciferase reporter assay; format: functional, organism-based; details: Human immunodeficiency virus 1, MT2
[26] = tested on: Human immunodeficiency virus 1; assay: Antiviral activity against HIV1 NL (4 to 3) harbouring V362I/deltaV370 mutant transfected in human HEK293T cells by dual-luciferase reporter assay; format: functional, organism-based; details: Human immunodeficiency virus 1, HEK-293T

Cytochrome P450 2C19, sequence (P33261 whole entry): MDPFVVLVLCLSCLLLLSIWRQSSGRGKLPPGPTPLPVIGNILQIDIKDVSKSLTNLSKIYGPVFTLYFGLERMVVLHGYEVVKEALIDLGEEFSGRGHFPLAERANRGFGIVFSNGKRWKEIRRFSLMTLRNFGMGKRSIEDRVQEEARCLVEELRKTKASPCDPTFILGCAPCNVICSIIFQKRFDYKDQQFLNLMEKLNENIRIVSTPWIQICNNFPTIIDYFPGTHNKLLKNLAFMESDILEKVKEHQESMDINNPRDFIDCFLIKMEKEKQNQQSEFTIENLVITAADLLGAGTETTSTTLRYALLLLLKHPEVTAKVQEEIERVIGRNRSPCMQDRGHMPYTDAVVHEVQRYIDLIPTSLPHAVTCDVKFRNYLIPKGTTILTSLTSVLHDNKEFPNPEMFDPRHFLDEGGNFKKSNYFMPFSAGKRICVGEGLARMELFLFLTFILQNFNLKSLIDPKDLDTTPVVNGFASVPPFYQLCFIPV
Cytochrome P450 2C9, sequence (P11712 whole entry): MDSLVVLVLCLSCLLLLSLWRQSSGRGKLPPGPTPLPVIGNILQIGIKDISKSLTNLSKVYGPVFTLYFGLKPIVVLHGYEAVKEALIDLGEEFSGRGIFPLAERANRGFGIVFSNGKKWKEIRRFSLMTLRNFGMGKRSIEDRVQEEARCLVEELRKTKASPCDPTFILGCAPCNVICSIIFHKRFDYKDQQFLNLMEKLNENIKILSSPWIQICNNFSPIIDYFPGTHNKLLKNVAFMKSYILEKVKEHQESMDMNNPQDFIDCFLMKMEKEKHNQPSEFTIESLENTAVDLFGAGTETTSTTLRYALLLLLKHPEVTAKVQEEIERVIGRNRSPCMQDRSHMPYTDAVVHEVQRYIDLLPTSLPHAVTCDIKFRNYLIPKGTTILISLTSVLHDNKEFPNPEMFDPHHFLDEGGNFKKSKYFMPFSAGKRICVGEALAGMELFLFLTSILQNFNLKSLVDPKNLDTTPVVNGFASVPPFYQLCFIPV

For `C=C(C)[C@@H]1CC[C@]2(NCCN3CCS(=O)(=O)CC3)CC[C@]3(C)[C@H](CC[C@@H]4[C@@]5(C)CC=C(C6=CC[C@@](CF)(C(=O)O)CC6)C(C)(C)[C@@H]5CC[C@]43C)[C@@H]12` [FIPRAVIRIMAT], the concentration at 24 h [1] was 21.8 nM, the Kd [2] was 1.4 nM and the EC50 [3] was over 5000 nM. It also gave a half-life at 0.5 µM [4] of 1.5 h, an AUCt [5] of 4.3 µM·h and an EC50 [6] of 1.9 nM. The fraction unbound [7] was 0.14, the IC50 [8] was over 13300 nM and the Vdss [9] was 0.49 L/kg. For the same molecule, the logD [10] was 4.9, the EC50 [11] was over 3000 nM and the AUC(0-t) [12] was 29.9 µM·h. For the same molecule, the IC50 [13] was 3900 nM, the half-life [14] was 4 h and the Vdss [15] was 0.43 L/kg. It also gave an EC50 [16] of over 5000 nM, a bioavailability [17] of 91% and an EC50 [18] of 1.1 nM. The Vdss [19] was 1 L/kg, the IC50 [20] was over 13300 nM and the Vdss [21] was 1.8 L/kg. The bioavailability [22] was 40%, the half-life at 0.5 µM [23] was over 2 h and the concentration at 24 h [24] was 1640 nM. For the same molecule, the EC50 [25] was 3 nM and the EC50 [26] was 3 nM.
